From patent publication US9511052B2, “Mineralocorticoid receptor antagonists” (Merck Sharp & Dohme Corp., priority 2012, dated 2016)

Molecular target: T1, full-length human Mineralocorticoid Receptor (MR) (Homo sapiens, UniProt P08235)
T1 construct: host or cells: PathHunter CHO-K1 MR cells
T1 sequence (P08235 1-984): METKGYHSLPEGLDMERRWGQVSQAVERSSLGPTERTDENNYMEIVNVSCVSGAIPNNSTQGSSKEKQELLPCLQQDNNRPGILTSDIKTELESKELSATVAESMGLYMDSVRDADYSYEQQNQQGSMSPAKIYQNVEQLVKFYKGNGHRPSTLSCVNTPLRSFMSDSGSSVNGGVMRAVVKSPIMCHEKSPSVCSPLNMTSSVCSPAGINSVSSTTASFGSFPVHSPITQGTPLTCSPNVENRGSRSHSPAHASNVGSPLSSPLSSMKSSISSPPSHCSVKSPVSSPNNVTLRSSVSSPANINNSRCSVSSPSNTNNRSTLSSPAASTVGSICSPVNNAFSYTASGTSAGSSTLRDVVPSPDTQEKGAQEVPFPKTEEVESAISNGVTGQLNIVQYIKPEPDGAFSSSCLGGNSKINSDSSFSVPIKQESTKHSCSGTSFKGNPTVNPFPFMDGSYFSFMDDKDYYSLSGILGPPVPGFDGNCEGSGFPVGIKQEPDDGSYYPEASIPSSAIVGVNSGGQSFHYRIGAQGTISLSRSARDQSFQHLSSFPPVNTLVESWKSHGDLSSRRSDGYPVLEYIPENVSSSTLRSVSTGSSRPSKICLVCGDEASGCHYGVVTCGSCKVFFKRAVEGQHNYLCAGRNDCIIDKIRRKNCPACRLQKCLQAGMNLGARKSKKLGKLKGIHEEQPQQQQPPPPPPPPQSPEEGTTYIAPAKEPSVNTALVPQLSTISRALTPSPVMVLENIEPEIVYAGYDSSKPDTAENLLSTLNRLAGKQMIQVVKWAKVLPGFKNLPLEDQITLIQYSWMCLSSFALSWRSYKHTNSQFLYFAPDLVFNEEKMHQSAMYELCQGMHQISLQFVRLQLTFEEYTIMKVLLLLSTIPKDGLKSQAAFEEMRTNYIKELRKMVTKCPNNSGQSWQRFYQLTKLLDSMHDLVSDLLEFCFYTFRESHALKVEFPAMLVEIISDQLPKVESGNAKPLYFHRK
Test: human MR NH Pro assay (PathHunter Protein:Protein interaction assay), MR antagonism
Format: cell-based
Details: IP = inflection point of the dose-response curve; CHO-K1 cells overexpressing human MR, aldosterone about 0.3 nM to about 1 nM, 6 hours at 37° C.
Description: The activity of the compounds of the present invention regarding mineralocorticoid receptor antagonism can be evaluated using the following assay.
Assessment of MR Potency in HMR NH Pro Assay
The human MR NH Pro assay is a commercially available PathHunter™ Protein:Protein interaction assay (DiscoveRx; http://www.discoverx.com/nhrs/prod-nhrs.php) that measures the ability of compounds to antagonize full-length human Mineralocorticoid Receptor (MR) binding to a coactivator peptide.
Stock solution was prepared at 10 μM in DMSO and stored at −20° C. for assay, dilute in assay media to 1.8 or 6 nM (6× of final concentration=about 0.3 nM to about 1.0 nM)
5. Cell line: PathHunter CHO-K1 MR cells Cat #93-0456C2, Lot No: 09B0913, from operation liquid nitrogen stock.
6. Control Antagonist: Spironolactone: Sigma #S-3378 and Eplerenone Sigma #107724-20-9 (10 mM stock concentration also prepared in DMSO and stored at −20° C.).
1. Cells are grown in F12+FBS+Hygromycin+pen/strep+Genetin
2. Cells are collected with 0.05% trypsin and the cell suspension is spun and resuspended in a volume of F12+1.5% CD-FBS and counted.
3. The cells concentration was adjusted to 4×10^5 cells/mL.
4. Cells were (25 μL/well) added to the wells of a 384 well plate.
5. The plate was then incubated at 37° C. over night in a humidified incubator with 5% CO2.
6. Test compounds were titrated starting at 4.4 mM, 10-point titration in 1:3 dilution.
Protocol for 384 well plate format: 6 hr treatment:
1. 10K exponentially growing cells/well (25 μL) were resuspended in assay media and plated into each well using the Multidrop (Thermo Electron) (use white wall, clear bottom assay plates (Costar #3570) and incubated overnight at 37° C., 5% CO2.
2. 0.25 μL 120× test compound (final DMSO concentration should be <1%) was added to each well n=2, 10 point titrations starting at 36.7 μM final concentration.
4. 5 μL of assay media was added to all wells in column 23 and 24.
5. Cells were then incubated for 6 hrs at 37° C., 5% CO2.
6. 15 μL 3× DiscoveRx detection reagent was then added to each well.
7. Plates were incubated for 1 hour at room temperature in the dark.
8. Plates were read on Envision (PerkinElmer) luminesence plate reader and analyzed using ADA.

| IC50 | SMILES |
| --- | --- |
| 1130 nM | CCC(O)C(CC)(c1ccc(S(F)(F)(F)(F)F)cc1)n1ncc2c(NS(C)(=O)=O)cccc21 (single isomer, unassigned) [Compound 26, N-(1-{4-hydroxy-3-[4-(pentafluoro-λ^6-sulfanyl)phenyl]hexan-3-yl}-1H-indazol-4-yl)methanesulfonamide] |
| 27 nM | CCC(c1ccc(C(F)(F)F)cc1)(C(C)O)n1ncc2c(NS(C)(=O)=O)cc(F)cc21 (single isomer, unassigned) [Compound 32, N-(6-fluoro-1-(2-hydroxy-3-(4-(trifluoromethyl)phenyl)pentan-3-yl)-1H-indazol-4-yl)methanesulfonamide] |
| 1110 nM | CCC(c1ccc(C(F)(F)F)cc1)(C(C)O)n1ncc2c(NS(C)(=O)=O)cc(F)cc21 (single isomer, unassigned) [Compound 33, N-(6-fluoro-1-(2-hydroxy-3-(4-(trifluoromethyl)phenyl)pentan-3-yl)-1H-indazol-4-yl)methanesulfonamide] |
| 1140 nM | CCC(c1ccc(C(F)(F)F)cc1)(C(C)O)n1ncc2c(NS(C)(=O)=O)cc(F)cc21 (single isomer, unassigned) [Compound 34, N-(6-fluoro-1-(2-hydroxy-3-(4-(trifluoromethyl)phenyl)pentan-3-yl)-1H-indazol-4-yl)methanesulfonamide] |
| 95 nM | CC(O)C(CC(F)F)(c1ccc(C(F)(F)F)cc1)n1ncc2c(NS(C)(=O)=O)cccc21 (single isomer, unassigned) [Compound 36, N-(1-(1,1-difluoro-4-hydroxy-3-(4-(trifluoromethyl)phenyl)pentan-3-yl)-1H-indazol-4-yl)methanesulfonamide] |
| 596 nM | CC(O)C(CC(F)F)(c1ccc(C(F)(F)F)cc1)n1ncc2c(NS(C)(=O)=O)cccc21 (single isomer, unassigned) [Compound 38, N-(1-(1,1-difluoro-4-hydroxy-3-(4-(trifluoromethyl)phenyl)pentan-3-yl)-1H-indazol-4-yl)methanesulfonamide] |
| 23 nM | CCC(O)C(CC(F)F)(c1ccc(C(F)(F)F)cc1)n1ncc2c(NS(C)(=O)=O)cccc21 (single isomer, unassigned) [Compound 39, N-(1-(1,1-difluoro-4-hydroxy-3-(4-(trifluoromethyl)phenyl)hexan-3-yl)-1H-indazol-4-yl)methanesulfonamide] |
| 15 nM | CCC(O)C(CC(F)F)(c1ccc(C(F)(F)F)cc1)n1ncc2c(NS(C)(=O)=O)cccc21 (single isomer, unassigned) [Compound 40, N-(1-(1,1-difluoro-4-hydroxy-3-(4-(trifluoromethyl)phenyl)hexan-3-yl)-1H-indazol-4-yl)methanesulfonamide] |
| 543 nM | CCC(O)C(CC(F)F)(c1ccc(C(F)(F)F)cc1)n1ncc2c(NS(C)(=O)=O)cccc21 (single isomer, unassigned) [Compound 41, N-(1-(1,1-difluoro-4-hydroxy-3-(4-(trifluoromethyl)phenyl)hexan-3-yl)-1H-indazol-4-yl)methanesulfonamide] |
| 1370 nM | CCC(O)C(CC(F)F)(c1ccc(C(F)(F)F)cc1)n1ncc2c(NS(C)(=O)=O)cccc21 (single isomer, unassigned) [Compound 42, N-(1-(1,1-difluoro-4-hydroxy-3-(4-(trifluoromethyl)phenyl)hexan-3-yl)-1H-indazol-4-yl)methanesulfonamide] |
| 388 nM | CS(=O)(=O)Nc1cccc2c1cnn2C(CO)(CC(F)F)c1ccc(C(F)(F)F)cc1 (single isomer, unassigned) [Compound 43, N-(1-(4,4-difluoro-1-hydroxy-2-(4-(trifluoromethyl)phenyl)butan-2-yl)-1H-indazol-4-yl)methanesulfonamide] |
| 539 nM | CS(=O)(=O)Nc1cccc2c1cnn2C(CO)(CC(F)F)c1ccc(C(F)(F)F)cc1 (single isomer, unassigned) [Compound 44, N-(1-(4,4-difluoro-l-hydroxy-2-(4-(trifluoromethyl)phenyl)butan-2-yl)-1H-indazol-4-yl)methanesulfonamide] |
